Ten compounds from US8148424B2, “Tocopherols, tocotrienols, other chroman and side chain derivatives and uses thereof” (Research Development Foundation, priority 1998, dated 2012) can be followed below.

Values after ≈ are worked out from the molar mass of the structure shown. Some results are limits rather than exact numbers.

Assay [1] has as its system ME-180. Nature of the assay: Bioassay for apoptosis (apoptotic EC50). It is filed as cell-based, human. To be noted: for apoptotic EC50: ME-180, unit not given, in µg/mL. As to the method: (§1) Cells were cultured at 1.5×10^5 cells/well in 12 well plates. Cells were allowed to adhere overnight, then incubated with novel test compounds at 0.01, 0.1, 1, 5, 10 & 20 μg/mL for 1, 2 and 3 days. After treatment, cells (floating+trypsin released adherent cells) were pelleted, washed and stained with 2 μg/ml DAPI (4′,6-diamidine-2′-phenylindole dihydrochloride) in 100% methanol for 15 minutes at 37° C. and/or 3′-OH ends resulting from DNA fragmentation were detected with the TUNEL (terminal deoxynucleotidyl transferase-mediated dUTP-X 3′ nick end-labeling) technique, and then viewed using a Zeiss ICM 405 microscope. Cells whose nucleus contained clearly condensed or fragmented chromatin or stained for fragmented DNA in the TUNEL assay were scored as apoptotic. Data are presented as percent cells undergoing apoptosis.

In assay [2] the test system is human cancer cells from a wide variety of cell lineages. Nature of the assay: Apoptosis induction in a battery of tumor cells. It is filed as cell-based. To be noted: breast, prostate, leukemia/lymphoid, cervical, ovarian, endometrial, colon, lung cell lines. How it is done:
as §1

The test system of assay [3] is RL-95-2. The experiment in a line: Bioassay for apoptosis (apoptotic EC50). It is filed as cell-based, human. To be noted: Homo sapiens, RL95-2, RL-95-2; unit inferred. As to the method:
as §1

The subject of assay [4] is C-170. Nature of the assay: Bioassay for apoptosis (apoptotic EC50). It is filed as cell-based, human. How it is done:
as §1

The subject of assay [5] is MCF-7. The experiment in a line: Bioassay for apoptosis (apoptotic EC50). The assay is classed as cell-based, human. To be noted: for EC50: Homo sapiens, MCF7, MCF-7, unit inferred. How it is done:
as §1

Assay [6] has as its system MDA-MB-231. The experiment in a line: Bioassay for apoptosis (apoptotic EC50). It is filed as cell-based, human. To be noted: for EC50: Homo sapiens, MDA-MB-231, MDA-MB-231, unit inferred. How it is done:
as §1

Assay [7] has as its system MDA-MB-435. The experiment in a line: Bioassay for apoptosis (apoptotic EC50). The assay is classed as cell-based, human. The following applies: for EC50: Homo sapiens, MDA-MB-435, MDA-MB-435, unit inferred, read-out: apoptotic EC50; for apoptotic EC50: MDA-MB-435, unit not given. How it is done: as §1
Assay [8] relates to LnCaP. Nature of the assay: Bioassay for apoptosis (apoptotic EC50). It is filed as cell-based, human. As to the method: as §1
Assay [9] deals with HL-60. The experiment in a line: Bioassay for apoptosis (apoptotic EC50). It is filed as cell-based, human. The following applies: HL-60; unit not given; in µg/mL. As to the method: as §1
Assay [10] deals with PC-3. Nature of the assay: Bioassay for apoptosis (apoptotic EC50). It is filed as cell-based, human. The following applies: PC-3; unit not given; in µg/mL. How it is done:
as §1

The test system of assay [11] is HT-29 Human Colon Cancer Cells Transplanted into Nude Mice. The experiment in a line: Preclinical chemotherapeutic xenograft study. The assay is classed as in vivo. To be noted: for Mean tumor Weights (mg) Following Treatments / Percent mean tumor weight gain (mg) following treatments: positive control 30 mg/kg daily for 5 days. How it is done: (§2) For the preclinical chemotherapeutic studies, in the absence of an maximum tolerated dose, the mice are supplemented with 30 and 20 mgs/0.1 ml by gavage daily for 21 days. Compound 1 is dissolved in 100% ethanol at 2 grams of compound 1/5 mls of ethanol, and diluted in peanut oil (nonsupplemented vitamin E) to yield 30 and 20 mgs of compound 1 per 0.1 ml. Vehicle control consisted of a mixture of ethanol and peanut oil equivalents. The preclinical chemotherapeutic studies are conducted with compound 1, utilizing human MDA-MB-435 human breast cancer cells, human DU-145 prostate cancer cells, and human HT-20 colon tumor cells transplanted into Balb/c immune compromised nude mice.
(§3) A total of 40 immune compromised nude mice are utilized for testing each test compound (two treatment groups at 20 and 30 mg/day) in each tumor cell type. […] Tumor cells are transplanted subcutaneously into the left flank and permitted to grow to approximately 70 mg in size, test compound treatments by daily gavage are initiated, and continue for a total of 21 days. Mice are monitored daily for tumor size by caliper measurements. Mice are treated for 21 days; however, the mice are sacrificed when the tumors of the vehicle control reached 500 mg in weight. At the completion of the protocol, tumors are excised and tumor size established by weight. At the time of sacrifice, serum, tumor, and heart muscle are taken from animals in the two compound 1 test groups in order to establish levels of compound 1 via HPLC analyses (data not included). The chemotherapeutic effectiveness of compound 1 administered daily at 30 and 20 mgs/day is determined by comparing the tumor size of the two treatment groups with the vehicle control group for each of the three tumor types, and by comparing the size of the tumor in the two treatment groups with the tumor group from the positive control. Treatment is for 21 days, experiments are continued until mean weight of tumor for vehicle control reaches 500 mgs.

The subject of assay [12] is DU-145 Human Prostate Cancer Cells Transplanted into Nude Mice. Nature of the assay: Preclinical chemotherapeutic xenograft study. The following applies: for Mean tumor Weights (mg) Following Treatments / Percent mean tumor weight gain (mg) following treatments: positive control 1 mg/kg i.v. daily for 5 days. It is filed as in vivo. As to the method: as §2, §3
Assay [13] concerns MDA-MB-435 Human Breast Cancer Cells Transplanted into Nude Mice. Nature of the assay: Preclinical chemotherapeutic xenograft study. The assay is classed as in vivo. To be noted: for Percent mean tumor weight gain (mg) following treatments / Mean tumor Weights (mg) Following Treatments: positive control 20 mg/kg i.p. daily for 5 days. How it is done:
as §2, §3

For “2-(2,5,7,8-tetramethyl-(2R-(4R,8,12-trimethyltridecyl)chroman-6-yloxy)triethylammonium sulfate [Compound 21]”, in [1], the “apoptotic EC50” value is recorded as 1-5. The “growth inhibitory (apoptotic inducing) properties specific for human cancer cells” value (“growth inhibitory” below) in assay [2] was “effective”.
Usually EC50 stands for the concentration needed to bring the measured effect to its halfway point. For `Cc1c(C)c2c(c(C)c1OCC(=O)O)CCC(C)(CCCC(C)CCCC(C)CCCC(C)C)O2` (racemic) [Compound 15, 2,5,7,8-tetramethyl-(2RS-(4RS,8RS,12-trimethyltridcyl)chroman-6-yloxy)acetic acid], the EC50 is more than 20 µg/mL in assay [3]; more than 20 µg/mL in assay [4] (Homo sapiens, C170, C-170, unit inferred); 20 to 30 µg/mL (≈ 40.9 to 61.4 µM) in [5]; 20 to 30 µg/mL (≈ 40.9 to 61.4 µM) in assay [6]; 20 to 30 µg/mL (≈ 40.9 to 61.4 µM) in [7]; more than 20 µg/mL in [1] (Homo sapiens, ME-180, ME-180, unit inferred). Further, the “growth inhibitory” value in assay [2] is given as “effective”.
Take `Cc1c(C)c2c(c(C)c1OCCC(=O)O)CC[C@@](C)(CCC[C@H](C)CCC[C@H](C)CCCC(C)C)O2` [Compound 2, 2,5,7,8-tetramethyl-(2R-(4R,8R,12-trimethyltridecyl)chroman-6-yloxy) propionic acid]: the “apoptotic EC50” value in [4] (C-170, unit not given, in µg/mL) was 10-20; in [8] (unit not given, in µg/mL), 5-10; in assay [5] (MCF-7, unit not given, in µg/mL), 20-30; in assay [6] (MDA-MB-231, unit not given, in µg/mL) it was 10-20; in assay [9] it was 10-20; in [10], 5-10. In addition, the “apoptotic EC50” value in assay [7] (in µg/mL) is given as 10-20; in assay [1], 5-10. In [2], the “growth inhibitory” value was “effective”.
As for `O=c1[nH]cc(F)c(=O)[nH]1` [Compound 5-FU, 5 Fluorouracil, reference compound], the “Mean tumor Weights (mg) Following Treatments” value (shortened to “Mean tumor Weights”) was determined as 59.3 mg in assay [11] (day 1); 87.5 mg in [11] (day 5); 105.8 mg in assay [11] (day 8); 145.8 mg in assay [11] (day 12); 141.6 mg in assay [11] (day 15); 212.3 mg in [11] (day 19). The “Mean tumor Weights” value in [11] (day 22) came out at 255.5 mg. The “Percent mean tumor weight gain (mg) following treatments” value (from here on “Percent mean tumor weight gain”) in [11] (day 1) amounted to 100%; in [11] (day 5), 147.6%; in assay [11] (day 8), 178.4%; in [11] (day 12), 245.9%; in assay [11] (day 15), 247.2%; in assay [11] (day 19), 358.0%. In addition, the “Percent mean tumor weight gain” value in [11] (day 22) was found to be 430.0%. Moreover, in [11] (positive control, 30 mg/kg daily for 5 days), the “reduction of mean tumor growth vs vehicle control” value (from here on “reduction of mean tumor growth”) is given as 31.4%.
On to `Cc1c(C)c2c(c(C)c1OCC(=O)O)CC[C@](C)(C(=O)O)O2` [Compound 16], for which the EC50 in assay [5], in assay [6] and in assay [7] was more than 20 µg/mL in each case.
On to `C/C(=C\CSc1cc(C)c(OCC(=O)O)c(C)c1C)CCCC(C)CCCC(C)CCCC(C)C` (stereo not drawn) [Compound 27, E.Z,RS,RS,RS-(phytyltrimethylbenzenethiol-6-yloxy)acetic acid], for which the EC50 in [8] (Homo sapiens, unit inferred) was in the range of 10 to 20 µg/mL (≈ 19.8 to 39.6 µM); in assay [5] it was 10 to 20 µg/mL (≈ 19.8 to 39.6 µM). In addition, in [2], the “growth inhibitory” value is reported as “effective”.
On to `Cc1c(C)c(OCC(=O)O)c(C)c2c1NC(C)(CCCC(C)CCCC(C)CCCC(C)C)CC2` (stereo not drawn) [Compound 39, 1-Aza-α-tocopherol-6-yloxyl-acetic acid], for which the “apoptotic EC50” value in assay [7] (in µg/mL) was 10-20. Also, the “growth inhibitory” value in [2] is “effective”.
With `Cc1c(C)c2c(c(C)c1N=Nc1ccc([N+](=O)[O-])cc1[N+](=O)[O-])CCC(C)(CCCC(C)CCCC(C)CCCC(C)C)N2` (stereo not shown) [Compound 43], the “apoptotic EC50” value in assay [7] is recorded as “PPT”.
As to `O=C1c2c(O)ccc(O)c2C(=O)c2c(NCCNCCO)ccc(NCCNCCO)c21` [Mitoxantrone, reference compound], the “Mean tumor Weights” value in assay [12] (day 1) amounted to 66.8 mg; in [12] (day 5), 107.2 mg; in [12] (day 8), 141.1 mg; in assay [12] (day 12) it was 185.4 mg; in assay [12] (day 15), 205.2 mg; in [12] (day 19), 325.3 mg. In addition, the “Mean tumor Weights” value in [12] (day 22) is listed as 389.4 mg. The “Percent mean tumor weight gain” value is listed as 100% in assay [12] (day 1); 160.5% in assay [12] (day 5); 211.2% in assay [12] (day 8); 277.5% in [12] (day 12); 307.2% in assay [12] (day 15); 487.0% in assay [12] (day 19). In addition, in [12] (day 22), the “Percent mean tumor weight gain” value turned out to be 582.9%. The “reduction of mean tumor growth” value in [12] (positive control, 1 mg/kg daily intravenously for 5 days) was found to be 27.9%.
On to `CC(=O)O[C@H]1C(=O)[C@@]2(C)[C@H]([C@H](OC(=O)c3ccccc3)[C@]3(O)C[C@H](OC(=O)[C@H](O)[C@@H](NC(=O)c4ccccc4)c4ccccc4)C(C)=C1C3(C)C)[C@]1(OC(C)=O)CO[C@@H]1C[C@@H]2O` [Taxol, reference compound], for which the “Percent mean tumor weight gain” value is 100% in assay [13] (day 1); 101.1% in assay [13] (day 4); −46.0% in assay [13] (day 7); −83.7% in assay [13] (day 10); −91.8% in assay [13] (day 14); −99.5% in [13] (day 17). Besides, the “Percent mean tumor weight gain” value in assay [13] (day 21) is −90.3%. Further, the “Mean tumor Weights” value in [13] (day 7) is listed as 38.2 mg; in assay [13] (day 10), 11.7 mg; in [13] (day 14) it was 5.7 mg; in assay [13] (day 17), 3.6 mg; in assay [13] (day 21), 6.8 mg. In addition, the “reduction of mean tumor growth” value in assay [13] (positive control, 20 mg/kg intraperitoneally daily for 5 days) was determined as 90.3%.
